# Reference: patent publication US11344534B2, “Cholinergic agonism for the treatment of pancreatic cancer” (priority 2017, dated 2022)
# “Also recorded” adds a separate entry of the source. Read-outs that look alike come from different tables or passages of the source.
# Assays:
# [1] = test system: KPC mice; assay: KPC mice with established PDAC treated with gemcitabine with or without bethanechol; assay type: in vivo, mouse; settings: for overall survival (in words): KPC mice with established PDAC, bethanechol + GEM vs GEM alone
# From the text: Next, the role of cholinergic signaling in advanced pancreatic cancer was investigated using the genetically engineered KPC (K-Ras^+/LSL-G12D;p53^+/R172H;Pdx-1-Cre) mouse model, which develops ductal adenocarcinoma by 17-19 weeks (Olive et al., 2009, Hingorani et al., 2005).
# K-Ras^+/LSL-G12D, p53^+/R172H, and Pdx-1-Cre mice were provided by Dr. Kenneth Olive (Columbia University). M1RKO mice were purchased from the Jackson Laboratory. KC mice and KPC mice were crossed with M1RKO mice. For several experiments, KC mice received pyloroplasty with or without vagotomy at 8 weeks and KC+VxPP mice were treated with or without bethanechol (400 μg/ml) after surgery immediately. They were sacrificed at 20 weeks. In addition, KPC mice were treated with gemcitabine biweekly and with or without bethanechol when the tumor size of 3-5 mm detected using ultrasound. They were sacrificed when the mice were moribund. For liver metastatic experiments, WT type C57/B6 mice received spleen injection and hemi-splenectomy. […] They were sacrificed when the mice were moribund.
# Next, the role of cholinergic signaling in established PDAC was investigated using the KPC mouse model, which develops PDAC at a median age of 17-19 weeks^2, 29. KPC mice with pancreatic tumors that measured 3-5 mm in diameter on ultrasound were randomized to treatment with gemcitabine (GEM) alone, or GEM+bethanechol (FIG. 8I).
# (§1) LSL-Kras^+/LSL-G12D, LSL-Trp53^+/R172H, and Pdx1-Cre mice were bred by Dr. Kenneth P. Olive and co-workers. Chrm1KO mice (C57BL/6-Chrm1tm1 Stl/J, (M1RKO) mice^1 were purchased from the Jackson Laboratory. KC mice and KPC mice were crossed with M1RKO mice. In the vagotomy experiments, KC mice received pyloroplasty with or without vagotomy at 8 weeks, and some KC+VxPP mice were treated with bethanechol ([…] in drinking water) immediately after surgery and then sacrificed at 20 weeks. KPC mice in treatment studies were palpated weekly for tumors in the pancreas. Once a tumor was suspected, KPC mice were screened by VEVO 2100—Ultrasound Imaging System (FUJIFILM VisualSonics) for pancreatic cancer. KPC mice were treated with gemcitabine, given by i.p. injection 100 mg/kg biweekly, with or without bethanechol, when a tumor size of 3-5 mm was detected using ultrasound. Mice were sacrificed when the mice were moribund. NOD/SCID mice were implanted with Panc1 cells subcutaneously and sacrificed at 30 days after implantation. For liver metastatic experiments, WT type C57/B6 mice received a splenic injection of labeled Panc02 cells, followed by hemi-splenectomy. The mice were then divided into three groups. […] Mice were then sacrificed when moribund. At necropsy, hepatic metastases that could clearly be identified as tumor nodules on gross inspection were separated. All animal studies and procedures were approved by the IACUC committee at Columbia University. All mice were bred under specific pathogen free conditions. Comparisons were made with age- and sex-matched control animals.
# CD44, p-EGFR, p-PI3K, p-ERK, and Ki67 positive cells were quantified in at least five high power fields from at least 3 mice per group. Total cells per field were counted via morphometric analysis using ImageJ and the ratio of positive cells to total cell number calculated.
# [2] = test system: Organoid cultures derived from LSL-K-Ras^G12D pancreata not treated by an Adeno-Cre virus; assay type: cell-based; settings: no Adeno-Cre virus (Kras not activated)
# [3] = cited from earlier work
# [4] = test system: primary human PDA organoids; assay: Primary human PDA organoids treated with pilocarpine; assay type: cell-based; settings: dose-dependent, 100DM pilocarpine in FIG. 21B
# From the text: To better understand the effect of growth inhibition by muscarinic agonists in human pancreatic epithelial cells, we generated primary human PDA organoids. Treatment with the broad muscarinic agonist, pilocarpine, reduced the number of viable organoids in a dose-dependent manner (FIGS. 21A-B). Treatment of human pancreatic cancer cells (Panc1) with pilocarpine reduced the size of the CD44+CD24+EpCAM+putative cancer stem cell population in a dose dependent manner (FIG. 21C) and inhibited tumor initiation in NOD/SCID mice (FIG. 21D). To better understand growth inhibition by muscarinic agonists, we analyzed changes in signaling molecules in animal models and PDA cell lines. […] Surprising, a number of signaling molecules were suppressed by both nonspecific and M1R-specific muscarinic agonists, including EGFR, B-RAF, ERK1/2, PI3K, and AKT kinase. These kinases all show reduced phosphorylation by muscarinic agonists, which was abrogated by treatment with muscarinic antagonists. Finally, we analyzed Panc-1 cells following pilocarpine treatment (1 mM, 72 hrs) using RNAseq, and noted that many of the genes suppressed by pilocarpine included EGFR and PI3K^17.
# [5] = test system: Panc1 cells; assay: Subcutaneous implantation of 25,000 pilocarpine-pretreated Panc1 cells into NOD/SCID mice; assay type: in vivo, mouse; settings: 25,000 Panc1 cells pretreated with pilocarpine for 72 hours vs untreated Panc1 cells
# Protocol: To address the possible parasympathetic effects on sternness, human pancreatic cancer cells (Panc1 and BxPC3) were treated with pilocarpine.
# To address the possible parasympathetic effects on stemness, human pancreatic cancer cells (Panc1 and BxPC3) were treated with pilocarpine.
# as §1
# [6] = test system: murine K8282 cells; assay: Western blot of EGFR/MAPK and PI3K/AKT signaling, K8282; assay type: cell-based, mouse
# Protocol: To analyze EGFR and the MAPK and PI3K-Akt pathway in human and murine pancreatic cancer cell lines, cells were grown in 12-well plate to around ˜70% confluent, changed the 0.5% FBS medium, added the drugs respectively and incubated them for further 72 hrs incubation in a typical CO2 incubator (˜20% O2). After removing the medium, cells were washed twice with PBS, and protein extraction was performed on ice using RIPA buffer with protease inhibitor (Complete) (Roche) cocktail and phosphatase inhibitor (phosSTOP) (Roche). Protein samples were subsequently separated in 10% Bis-Tris Gel NuPAGE® electrophoresis using MES SDS Running Buffer (Invitrogen, CA, USA). After transfer to nitrocellulose, membranes were blocked with 5% BSA, and samples were probed with the following primary antibodies: p-EGFR (Cell Signaling), EGFR (Cell Signaling), p-BRAF (Cell Signaling), BRAF (Cell Signaling), p-ERK1/2 (phosphorylated p44/42 MAPK) (Thr202/Tyr204) (Cell Signaling), ERK1/2 (p44/42 MAPK) (Thr202/Tyr204) (Cell Signaling), p-PI3K (Cell Signaling), PI3K (Cell Signaling), p-Akt (Cell Signaling), Akt (Cell Signaling), and β-actin (Cell Signaling) followed by horseradish peroxidase-coupled secondary antibody. Immunoreactive bands were visualized using 5-bromo-4-chloro-3-indolyl phosphate/nitro blue tetrazolium and bands were quantified with ImageJ.
# To analyze EGFR, MAPK and PI3K-AKT pathways in human and murine pancreatic cancer cell lines, cells were grown in 12-well culture plates to ˜70% confluency. The medium was then changed to 0.5% FBS medium, the respective drugs were added, and they were incubated for an additional 72 hours in a CO2 incubator (˜5% CO2). After removing the medium, cells were washed twice with PBS, and protein extraction was performed on ice using RIPA buffer with protease inhibitor (Complete, Roche) cocktail and a phosphatase inhibitor (phosSTOP, Roche). Protein samples were subsequently separated by 10% Bis-Tris Gel NuPAGE® electrophoresis using MES SDS Running Buffer (Invitrogen, CA, USA). After transfer to nitrocellulose, membranes were blocked with 5% BSA, and samples were probed with the following primary antibodies: p-EGFR (Cell Signaling), EGFR (Cell Signaling), p-BRAF (Cell Signaling), BRAF (Cell Signaling), p-ERK1/2 (phosphorylated p44/42 MAPK) (Thr202/Tyr204) (Cell Signaling), ERK1/2 (p44/42 MAPK) (Thr202/Tyr204) (Cell Signaling), p-PI3K (Cell Signaling), PI3K (Cell Signaling), p-AKT (Cell Signaling), AKT (Cell Signaling), and β-actin (Cell Signaling) followed by horseradish peroxidase-coupled secondary antibody. Immunoreactive bands were visualized using 5-bromo-4-chloro-3-indolyl phosphate/nitro blue tetrazolium and bands were quantified with ImageJ.
# [7] = test system: Kras mutant Panc1 cells; assay: Ca2+ flux in pancreatic cancer cells; assay type: cell-based, human; settings: preliminary studies
SMILES,overall survival (in words) [1],overall survival (in words) ([1]; listed as Bethanechol),"expression of p-EGFR, p-PI3K and p-ERK1/2 (immunohistochemical staining) ([1]; pancreata of KPC mice treated with bethanechol)",sphere forming capacity / growth of WT spheres [2],"toxicity in treatment of xerostomia ([3]; cancer patients, 25 mg twice daily for several months)","side effects in treatment of xerostomia ([3]; cancer patients, up to 50 mg three times daily and 25 mg 3 times a day)","duration of action ([3]; human, in vivo)","interactions with gemcitabine or nab-paclitaxel ([3]; human, in vivo)","toxicity in treatment of xerostomia ([3]; oncology, doses up to 50 mg three times daily)",toxicity of single doses ([3]; single doses up to 200 mg),number of viable organoids [4],tumor incidence / tumor initiation in NOD/SCID mice [5],tumor volume / size in NOD/SCID mice [5],tumor incidence / tumor initiation in NOD/SCID mice ([5]; listed as Pilocarpine),tumor volume / size in NOD/SCID mice ([5]; listed as Pilocarpine),"phosphorylation of EGFR, BRAF, ERK1/2, PI3K and AKT kinases (western blot) ([6]; 72 hours)","ratios of p-EGFR/EGFR, p-BRAF/BRAF, p-ERK/ERK, p-PI3K/PI3K and p-AKT/AKT (densitometry) ([6]; single agent alone)",Ca2+ flux [7]
"CC(C[N+](C)(C)C)OC(N)=O (stereo not shown) [bethanechol, 2-[(aminocarbonyl)oxy]-N,N,N-trimethyl-1-propanaminium]",extended significantly; also recorded: significantly extended,significantly extended; also recorded: prolongs,suppressed; also recorded: significantly downregulated,increased,without any severe (Grade 3) toxicity,did not identify any clinically significant side effects,6 h,no reported interactions,without grade 3 toxicity or need for discontinuation,only mild cholinergic toxicity,–,–,–,–,–,–,–,–
"CC[C@@H]1C(=O)OC[C@@H]1Cc1cncn1C [pilocarpine, (3S,4R)-3-ethyl-4-[(3-methylimidazol-4-yl)methyl]oxolan-2-one]",–,–,–,stimulates,–,–,–,–,–,–,reduced,significant reduction; also recorded: inhibited,significant reduction,fewer,smaller,significantly less phosphorylated,significantly decreased,unable to stimulate
